PubChem BioAssay (NCI)
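Briefly, cells in 96-well plates were exposed to five compound concentrations for 48 h, and endpoints were estimated by linear interpolation. Here, GI50 denotes the concentration required for 50% inhibition of growth. At the TGI there is no net growth.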

Columns and labels:
Test in all cases: NCI tumour cell line growth inhibition, 48 h
A549 NSCLC = tested on: A549 NSCLC
HCT-15 colon = tested on: HCT-15 colon
HT29 colon = tested on: HT29 colon
MALME-3M melanoma = tested on: MALME-3M melanoma
MCF7 breast = tested on: MCF7 breast
MDA-MB-435 = tested on: MDA-MB-435
OVCAR-3 ovarian = tested on: OVCAR-3 ovarian
SF-295 CNS = tested on: SF-295 CNS
SK-MEL-5 melanoma = tested on: SK-MEL-5 melanoma
SN12C renal = tested on: SN12C renal

SMILES	GI50 (A549 NSCLC) [µM]	TGI (A549 NSCLC) [µM]	GI50 (HCT-15 colon) [µM]	TGI (HCT-15 colon) [µM]	GI50 (HT29 colon) [µM]	TGI (HT29 colon) [µM]	GI50 (MALME-3M melanoma) [µM]	TGI (MALME-3M melanoma) [µM]	GI50 (MCF7 breast) [µM]	TGI (MCF7 breast) [µM]	GI50 (MDA-MB-435) [µM]	TGI (MDA-MB-435) [µM]	GI50 (OVCAR-3 ovarian) [µM]	TGI (OVCAR-3 ovarian) [µM]	GI50 (SF-295 CNS) [µM]	TGI (SF-295 CNS) [µM]	GI50 (SK-MEL-5 melanoma) [µM]	TGI (SK-MEL-5 melanoma) [µM]	GI50 (SN12C renal) [µM]	TGI (SN12C renal) [µM]
Nc1c(C(=O)Nc2ccccc2Cl)sc2nc3c(cc12)C(=O)CCC3	0.648	> 100	0.626	> 100	0.61	> 100	2.78	> 100	0.494	> 100	0.137	0.349	1.22	> 100	0.542	> 27.5	1.02	> 100	> 100	> 100
COc1ccc(-c2cc(Nc3ccnc(N4CCOCC4)n3)on2)cc1	0.224	12.1	0.0645	13	0.243	11.5	0.289	17.4	0.258	12.3	0.0307	0.121	0.0728	2.66	0.171	5.95	0.189	2.07	0.7	16.6
Clc1nc(Cl)c2ncn(Cc3ccccc3Cn3cnc4c(Cl)nc(Cl)nc43)c2n1	6.9	21.4	1.47	3.32	2.13	–	0.211	6.18	0.922	4.99	2.31	5.58	1.47	2.85	7.05	22.4	1.81	4.13	2.31	7.24
COc1cc(/C=C/C(=O)C(C(=O)/C=C/c2ccc(OC(=O)CCNC34CC5CC(CC(C5)C3)C4)c(OC)c2)C(=O)CCNC23CC4CC(CC(C4)C2)C3)ccc1OC(=O)CCNC12CC3CC(CC(C3)C1)C2 (stereo not drawn)	2.86	10.1	3.21	7.51	1.69	3.24	2.44	9.92	1.97	6.28	2.88	35.3	4.98	> 100	17.2	34.4	3.36	13.4	2.85	9.48
Cn1cc(S(=O)(=O)N2CCC3=Cc4c(cnn4-c4ccc(F)cc4)C[C@]3(C(=O)c3cc(C(F)(F)F)ccn3)C2)cn1	39.7	> 100	> 100	> 100	89.7	> 100	> 100	> 100	6.34	> 100	> 100	> 100	> 100	> 100	> 100	> 100	57.7	> 100	> 100	> 100
CC(C)(C)c1cc(C(=O)/C=C/c2ccc(C(=O)O)cc2)cc(C(C)(C)C)c1	–	13.4	–	4.12	–	13.2	–	7.99	–	14.8	–	6.66	–	7.31	–	7.29	–	14.7	–	6.6
NCCCn1c2c(c3ccccc3c1=O)C(=O)c1ccccc1-2	0.0597	0.815	0.0762	1.38	0.128	15.4	0.156	1.46	0.0728	18	0.7	3.07	0.721	5.25	0.0709	0.55	0.105	0.948	0.0791	0.465
Cc1noc2c1-c1ccccc1C(c1ccc(Cl)cc1)=N[C@H]2CC(N)=O	18.3	> 100	2.49	> 100	1.35	> 100	5.17	> 100	0.732	> 100	2.78	> 100	3.75	> 100	4.71	> 100	6.96	> 75.2	38.2	> 100
Cn1c(=S)c2[nH]c(SCCCc3ccccc3)nc2n(C)c1=O	–	72	–	> 100	–	> 100	–	> 100	–	> 100	–	> 100	–	> 100	–	79.9	–	33.5	–	> 100
Cc1sc2c(c1C)C(c1ccc(Cl)cc1)=N[C@@H](CC(=O)Nc1ccc(OCCOCCOCCOCCNc3cccc4c3C(=O)N(C3CCC(=O)NC3=O)C4=O)cc1)c1nnc(C)n1-2 (stereo partly drawn)	0.338	> 100	0.394	> 100	0.314	> 100	> 100	> 100	< 0.0166	> 100	< 0.0453	> 100	0.551	> 100	0.234	> 100	0.195	27.5	–	> 100
